Data from paper PMC4774911, “Biochemical Screening of Five Protein Kinases from Plasmodium falciparum against 14,000 Cell-Active Compounds” (PLoS ONE, 2016).
Where “and” joins values, the source holds several entries; their conditions need not be identical. Equal entries are not always repeated. Where two headings read alike, the source gives them in different places.

Columns and labels:
STK11 = target: T1, STK11 (Homo sapiens, UniProt Q15831); test: biochemical; design: endogenous in cells; host or cells: K562 cell extract; species or system K562 (extract); replicate k of n = 2 (each experiment ID is one independent experiment; two experiment IDs per compound); details: read-out: KDapp
T1 sequence (Q15831 1-433): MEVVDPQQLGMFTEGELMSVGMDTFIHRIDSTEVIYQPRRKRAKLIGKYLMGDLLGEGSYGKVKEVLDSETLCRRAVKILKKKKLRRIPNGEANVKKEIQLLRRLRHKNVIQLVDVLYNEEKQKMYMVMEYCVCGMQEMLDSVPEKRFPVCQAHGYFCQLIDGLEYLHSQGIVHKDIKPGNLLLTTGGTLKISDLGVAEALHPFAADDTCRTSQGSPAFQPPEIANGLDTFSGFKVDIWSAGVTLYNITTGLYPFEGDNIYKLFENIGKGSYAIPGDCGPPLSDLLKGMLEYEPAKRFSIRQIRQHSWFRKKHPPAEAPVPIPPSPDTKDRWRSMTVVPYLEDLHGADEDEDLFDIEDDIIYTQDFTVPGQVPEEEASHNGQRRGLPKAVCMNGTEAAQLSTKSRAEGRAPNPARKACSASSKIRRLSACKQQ

DDR1 = DDR1 (Homo sapiens, UniProt Q08345); test: biochemical; design: endogenous in cells; host or cells: K562 cell extract; species or system K562 (extract); replicate k of n = 2 (each experiment ID is one independent experiment; two experiment IDs per compound); details: read-out: KDapp
Chain of DDR1 (Q08345 whole entry): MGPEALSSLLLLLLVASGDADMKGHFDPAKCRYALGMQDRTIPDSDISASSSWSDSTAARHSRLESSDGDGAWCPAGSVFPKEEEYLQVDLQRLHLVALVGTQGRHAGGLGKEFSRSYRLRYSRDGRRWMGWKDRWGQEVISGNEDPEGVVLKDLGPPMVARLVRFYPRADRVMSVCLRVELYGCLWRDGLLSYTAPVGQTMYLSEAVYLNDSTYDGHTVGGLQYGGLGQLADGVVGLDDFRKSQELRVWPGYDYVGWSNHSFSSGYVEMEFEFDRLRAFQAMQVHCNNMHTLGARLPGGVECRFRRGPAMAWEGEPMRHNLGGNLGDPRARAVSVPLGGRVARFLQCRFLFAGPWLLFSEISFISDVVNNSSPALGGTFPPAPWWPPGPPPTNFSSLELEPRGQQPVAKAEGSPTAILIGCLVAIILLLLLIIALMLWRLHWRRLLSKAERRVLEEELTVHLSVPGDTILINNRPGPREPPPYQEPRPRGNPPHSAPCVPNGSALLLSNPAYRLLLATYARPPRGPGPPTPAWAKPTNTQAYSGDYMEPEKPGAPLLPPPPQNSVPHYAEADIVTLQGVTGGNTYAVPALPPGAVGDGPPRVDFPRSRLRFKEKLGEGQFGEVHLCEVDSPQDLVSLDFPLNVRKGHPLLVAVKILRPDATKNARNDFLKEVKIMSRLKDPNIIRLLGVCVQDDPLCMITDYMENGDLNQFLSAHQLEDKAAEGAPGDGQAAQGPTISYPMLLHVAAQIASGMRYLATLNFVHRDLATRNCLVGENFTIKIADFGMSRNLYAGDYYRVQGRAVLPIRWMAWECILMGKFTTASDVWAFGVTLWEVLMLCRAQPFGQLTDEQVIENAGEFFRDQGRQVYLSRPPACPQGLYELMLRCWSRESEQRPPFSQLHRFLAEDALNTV

PIP5K3 = PIP5K3 (Homo sapiens, UniProt Q9Y2I7); test: biochemical; design: endogenous in cells; host or cells: K562 cell extract; species or system K562 (extract); replicate k of n = 2 (each experiment ID is one independent experiment; two experiment IDs per compound); details: read-out: KDapp
Chain of PIP5K3 (Q9Y2I7 whole entry): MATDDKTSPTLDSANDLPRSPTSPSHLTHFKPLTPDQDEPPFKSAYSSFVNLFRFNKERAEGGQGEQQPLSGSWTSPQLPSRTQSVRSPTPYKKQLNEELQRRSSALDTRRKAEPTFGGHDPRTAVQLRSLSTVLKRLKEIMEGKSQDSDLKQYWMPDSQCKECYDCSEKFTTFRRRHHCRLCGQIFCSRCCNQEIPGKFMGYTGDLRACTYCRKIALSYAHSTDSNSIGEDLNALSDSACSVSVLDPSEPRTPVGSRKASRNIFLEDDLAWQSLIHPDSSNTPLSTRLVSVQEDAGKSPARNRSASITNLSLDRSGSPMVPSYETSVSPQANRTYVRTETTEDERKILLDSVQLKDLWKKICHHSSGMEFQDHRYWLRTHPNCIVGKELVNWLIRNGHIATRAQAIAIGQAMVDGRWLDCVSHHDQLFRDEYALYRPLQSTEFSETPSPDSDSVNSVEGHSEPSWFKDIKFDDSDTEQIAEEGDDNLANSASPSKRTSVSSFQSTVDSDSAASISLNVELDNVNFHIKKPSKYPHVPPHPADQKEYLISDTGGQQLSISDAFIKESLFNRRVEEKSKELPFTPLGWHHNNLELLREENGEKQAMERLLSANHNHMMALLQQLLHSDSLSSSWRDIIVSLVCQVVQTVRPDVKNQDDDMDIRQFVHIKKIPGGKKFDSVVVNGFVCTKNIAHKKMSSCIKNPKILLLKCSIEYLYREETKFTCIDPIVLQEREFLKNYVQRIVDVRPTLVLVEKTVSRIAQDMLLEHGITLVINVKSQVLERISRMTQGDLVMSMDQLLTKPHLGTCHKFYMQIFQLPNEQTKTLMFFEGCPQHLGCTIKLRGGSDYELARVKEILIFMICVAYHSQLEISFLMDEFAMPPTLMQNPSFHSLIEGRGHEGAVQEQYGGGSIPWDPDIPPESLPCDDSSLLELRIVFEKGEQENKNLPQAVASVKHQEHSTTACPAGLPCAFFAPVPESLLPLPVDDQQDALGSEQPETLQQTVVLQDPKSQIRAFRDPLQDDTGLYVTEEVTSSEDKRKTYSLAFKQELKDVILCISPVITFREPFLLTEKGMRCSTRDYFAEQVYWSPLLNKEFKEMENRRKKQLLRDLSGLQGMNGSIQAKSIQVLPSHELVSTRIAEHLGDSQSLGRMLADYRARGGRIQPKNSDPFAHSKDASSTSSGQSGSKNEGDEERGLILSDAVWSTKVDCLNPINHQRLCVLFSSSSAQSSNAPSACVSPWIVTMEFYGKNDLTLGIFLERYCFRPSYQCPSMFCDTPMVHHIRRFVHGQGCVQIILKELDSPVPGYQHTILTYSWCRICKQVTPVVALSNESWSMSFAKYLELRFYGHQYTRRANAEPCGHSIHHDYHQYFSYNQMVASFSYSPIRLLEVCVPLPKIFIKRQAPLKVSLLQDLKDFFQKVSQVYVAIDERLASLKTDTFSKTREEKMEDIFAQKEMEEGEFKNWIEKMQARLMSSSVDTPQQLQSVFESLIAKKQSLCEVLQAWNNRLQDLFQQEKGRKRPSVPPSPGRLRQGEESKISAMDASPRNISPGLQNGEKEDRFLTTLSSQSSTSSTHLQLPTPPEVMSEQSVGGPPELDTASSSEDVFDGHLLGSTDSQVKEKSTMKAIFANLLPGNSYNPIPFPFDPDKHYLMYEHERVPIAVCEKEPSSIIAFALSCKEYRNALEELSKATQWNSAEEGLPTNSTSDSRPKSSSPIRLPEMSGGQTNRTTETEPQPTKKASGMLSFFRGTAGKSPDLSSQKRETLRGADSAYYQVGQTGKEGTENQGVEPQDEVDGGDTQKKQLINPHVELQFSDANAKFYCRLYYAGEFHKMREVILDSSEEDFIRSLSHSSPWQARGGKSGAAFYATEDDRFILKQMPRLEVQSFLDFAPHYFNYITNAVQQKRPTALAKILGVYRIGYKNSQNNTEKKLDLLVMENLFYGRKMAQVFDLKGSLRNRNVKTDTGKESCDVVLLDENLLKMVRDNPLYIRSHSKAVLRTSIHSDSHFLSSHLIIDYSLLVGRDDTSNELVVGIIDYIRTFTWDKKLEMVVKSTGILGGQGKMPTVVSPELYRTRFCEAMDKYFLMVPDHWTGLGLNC

CSNK1A1 = CSNK1A1 (Homo sapiens, UniProt P48729); test: biochemical; design: endogenous in cells; host or cells: K562 cell extract; species or system K562 (extract); replicate k of n = 2 (each experiment ID is one independent experiment; two experiment IDs per compound); details: read-out: KDapp
Chain of CSNK1A1 (P48729 whole entry): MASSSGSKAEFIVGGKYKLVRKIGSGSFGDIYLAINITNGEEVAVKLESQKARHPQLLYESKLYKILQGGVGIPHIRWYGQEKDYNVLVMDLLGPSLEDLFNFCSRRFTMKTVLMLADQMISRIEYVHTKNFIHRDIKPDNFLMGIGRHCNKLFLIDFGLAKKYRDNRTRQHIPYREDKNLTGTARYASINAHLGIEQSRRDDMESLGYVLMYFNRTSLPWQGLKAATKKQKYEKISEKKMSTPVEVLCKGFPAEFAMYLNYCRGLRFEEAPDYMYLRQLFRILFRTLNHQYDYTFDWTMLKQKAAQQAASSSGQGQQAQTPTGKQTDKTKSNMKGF

TNIK = TNIK (Homo sapiens, UniProt Q9UKE5); test: biochemical; design: endogenous in cells; host or cells: K562 cell extract; species or system K562 (extract); replicate k of n = 2 (each experiment ID is one independent experiment; two experiment IDs per compound); details: read-out: KDapp
ABL2 = ABL2 (Homo sapiens, UniProt P42684); test: biochemical; design: endogenous in cells; host or cells: K562 cell extract; species or system K562 (extract); replicate k of n = 2 (each experiment ID is one independent experiment; two experiment IDs per compound); details: read-out: KDapp
MERTK = target: T2, MERTK (Homo sapiens, UniProt Q12866); test: biochemical; design: endogenous in cells; host or cells: K562 cell extract; species or system K562 (extract); replicate k of n = 2 (each experiment ID is one independent experiment; two experiment IDs per compound); details: read-out: KDapp
T2 sequence (Q12866 1-999): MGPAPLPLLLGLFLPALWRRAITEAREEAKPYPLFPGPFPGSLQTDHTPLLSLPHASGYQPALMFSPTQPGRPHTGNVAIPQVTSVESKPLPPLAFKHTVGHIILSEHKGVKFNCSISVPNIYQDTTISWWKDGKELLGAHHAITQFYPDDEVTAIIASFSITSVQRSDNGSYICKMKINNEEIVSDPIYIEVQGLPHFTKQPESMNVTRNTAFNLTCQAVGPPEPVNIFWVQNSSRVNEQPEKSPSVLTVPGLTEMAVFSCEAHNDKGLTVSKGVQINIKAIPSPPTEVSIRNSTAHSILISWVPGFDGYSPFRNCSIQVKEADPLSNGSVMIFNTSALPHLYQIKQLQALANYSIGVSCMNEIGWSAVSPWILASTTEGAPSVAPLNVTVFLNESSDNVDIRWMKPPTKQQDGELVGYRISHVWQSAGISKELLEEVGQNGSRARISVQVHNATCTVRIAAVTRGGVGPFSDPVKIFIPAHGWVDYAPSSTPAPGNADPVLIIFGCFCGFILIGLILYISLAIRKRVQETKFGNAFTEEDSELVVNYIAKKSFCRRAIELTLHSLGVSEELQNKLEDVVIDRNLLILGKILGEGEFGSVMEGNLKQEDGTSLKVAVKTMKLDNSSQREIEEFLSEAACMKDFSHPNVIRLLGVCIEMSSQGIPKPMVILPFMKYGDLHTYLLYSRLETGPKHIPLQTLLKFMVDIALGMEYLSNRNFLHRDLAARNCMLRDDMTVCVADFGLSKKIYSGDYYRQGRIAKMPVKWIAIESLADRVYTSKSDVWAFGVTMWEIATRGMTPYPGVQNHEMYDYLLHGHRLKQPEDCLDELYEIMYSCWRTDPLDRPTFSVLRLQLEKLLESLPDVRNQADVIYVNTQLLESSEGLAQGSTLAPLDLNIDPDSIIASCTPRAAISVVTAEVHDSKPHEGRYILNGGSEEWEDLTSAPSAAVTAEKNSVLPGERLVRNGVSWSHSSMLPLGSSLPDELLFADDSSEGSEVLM

PTK2 = PTK2 (Homo sapiens, UniProt Q05397); test: biochemical
Chain of PTK2 (Q05397 whole entry): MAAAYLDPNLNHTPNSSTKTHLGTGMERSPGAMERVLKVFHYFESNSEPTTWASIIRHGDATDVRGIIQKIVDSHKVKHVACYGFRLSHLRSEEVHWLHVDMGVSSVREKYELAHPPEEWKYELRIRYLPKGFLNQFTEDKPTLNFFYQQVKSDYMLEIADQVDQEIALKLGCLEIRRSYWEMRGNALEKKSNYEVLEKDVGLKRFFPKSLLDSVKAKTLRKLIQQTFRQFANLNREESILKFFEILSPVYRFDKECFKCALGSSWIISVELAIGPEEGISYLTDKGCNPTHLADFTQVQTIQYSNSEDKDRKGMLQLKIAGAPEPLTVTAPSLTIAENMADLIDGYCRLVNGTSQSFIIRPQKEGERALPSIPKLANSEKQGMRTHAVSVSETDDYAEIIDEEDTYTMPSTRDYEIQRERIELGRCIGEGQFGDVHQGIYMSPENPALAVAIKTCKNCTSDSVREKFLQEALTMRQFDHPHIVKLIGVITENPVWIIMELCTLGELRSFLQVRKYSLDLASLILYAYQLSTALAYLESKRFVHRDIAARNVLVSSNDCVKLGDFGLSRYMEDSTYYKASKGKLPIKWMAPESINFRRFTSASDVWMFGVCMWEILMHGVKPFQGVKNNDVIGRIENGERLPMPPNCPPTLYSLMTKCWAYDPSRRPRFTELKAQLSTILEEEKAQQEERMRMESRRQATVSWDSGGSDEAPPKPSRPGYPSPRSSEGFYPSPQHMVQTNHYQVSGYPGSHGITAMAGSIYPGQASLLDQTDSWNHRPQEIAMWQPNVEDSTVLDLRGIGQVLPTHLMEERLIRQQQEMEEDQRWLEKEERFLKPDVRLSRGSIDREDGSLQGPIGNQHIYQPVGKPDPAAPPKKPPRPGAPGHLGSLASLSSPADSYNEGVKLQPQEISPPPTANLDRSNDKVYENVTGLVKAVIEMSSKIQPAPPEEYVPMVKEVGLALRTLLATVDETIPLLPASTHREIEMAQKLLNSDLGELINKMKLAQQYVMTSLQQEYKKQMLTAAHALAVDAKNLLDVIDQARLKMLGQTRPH

OXSR1 = OXSR1 (Homo sapiens, UniProt O95747); test: biochemical
Chain of OXSR1 (O95747 whole entry): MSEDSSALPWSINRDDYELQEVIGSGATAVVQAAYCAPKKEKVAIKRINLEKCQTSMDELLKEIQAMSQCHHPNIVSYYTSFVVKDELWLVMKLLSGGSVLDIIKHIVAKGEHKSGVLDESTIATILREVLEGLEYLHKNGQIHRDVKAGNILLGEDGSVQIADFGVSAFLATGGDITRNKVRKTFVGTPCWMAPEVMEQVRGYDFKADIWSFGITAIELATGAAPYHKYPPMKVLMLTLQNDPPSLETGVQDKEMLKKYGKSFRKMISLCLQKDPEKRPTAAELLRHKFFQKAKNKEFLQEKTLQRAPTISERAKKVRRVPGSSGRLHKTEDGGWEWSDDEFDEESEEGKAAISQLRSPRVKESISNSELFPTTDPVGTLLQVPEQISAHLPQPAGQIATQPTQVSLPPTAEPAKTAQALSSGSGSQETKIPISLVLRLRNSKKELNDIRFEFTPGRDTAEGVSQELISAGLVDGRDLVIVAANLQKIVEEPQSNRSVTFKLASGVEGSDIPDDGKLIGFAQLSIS

P. falciparum 3D7 cells = details: cited from earlier work
[1] = tested on: human kinases in K562 cell extract; test: Kinobead competition assay, kinome-wide summary; format: binding; details: for Human kinases with apparent pKd ≥ 4.7 (N = 2) / Human kinases with apparent pKd ≥ 6 (N = 2): K562 extract, number of kinases, 20 μM-0.03 μM compound
Procedure: Kinobeads were prepared as described.

[2] = 3D7, downloaded from ChEMBL, ref F.J. Gamo et al., Nature 2010
[3] = P. falciparum 3D7, downloaded from ChEMBL ref F.J. Gamo et al., Nature 2010

Row | Compound | Kd (STK11) | Kd (DDR1) | Kd (PIP5K3) | Kd (CSNK1A1) | Kd (TNIK) | Kd (ABL2) | Kd (MERTK) | IC50 (PTK2) | IC50 (OXSR1) | PCT_IHB_3D7 (P. falciparum 3D7 cells; [2]) | pXC50_3D7 (P. falciparum 3D7 cells; [2]) | Share of human kinases tested bound with high affinity (pKd ≥ 6) ([1]; K562 extract kinobeads) | Human kinases with apparent pKd ≥ 4.7 (N = 2) [1] | Human kinases with apparent pKd ≥ 6 (N = 2) [1] | PCT_IHB_3D7 (P. falciparum 3D7 cells; [3]) | pXC50_3D7 (P. falciparum 3D7 cells; [3]) | PCT_IHB_3D7 (P. falciparum 3D7 cells; P. falciparum 3D7, ref ChEMBL) | pXC50_3D7 (P. falciparum 3D7 cells; P. falciparum 3D7, ref ChEMBL)
1 | CN1CCN(c2ccc(Nc3ncc(C#N)c(Nc4ccccc4C(N)=O)n3)cc2)CC1.Cl [TCMDC-134116] | 894 nM | 326 nM and 266 nM | 681 nM and 785 nM | 742 nM and 1080 nM | 92.2 nM and 115 nM | 89.8 nM and 71.9 nM | 325 nM | 44 nM and 58 nM | 81 nM and 130 nM | 92% | 7.405 | two thirds | 126 | 96 | – | – | – | –
2 | Cl.NCC1(c2nc(-c3ccc(Cl)c(O)c3)c(-c3ccncc3)[nH]2)CCCCC1 [TCMDC-141154] | 1250 nM | 977 nM | 524 nM | 224 nM and 255 nM | 134 nM | 220 nM and 180 nM | 4800 nM | > 20000 nM | > 20000 nM | – | – | – | 47 | 26 | 98 | 6.128 | – | –
3 | CN(C)CC(O)COc1ccc(Nc2ncc([N+](=O)[O-])c(Nc3ccccc3O)n2)cc1.O=C(O)C(F)(F)F (stereo not shown) [TCMDC-141399] | 3940 nM | 5970 nM | 3930 nM and 2770 nM | 7650 nM | 378 nM | 1890 nM | 567 nM | 90 nM and 97 nM | > 20000 nM | – | – | – | 63 | 24 | – | – | 100 | 6.118
